Like-named read-outs stand apart in the source and are kept apart here.

Data on 6 molecules can be found in US8741951B2, “Non-steroidal compounds for androgen receptor modulation” (CNR—Consiglio Nazionale delle Ricerche, priority 2009, dated 2014).

One series deals with PC-3 cell line. Nature of the series: SRB cytotoxicity, PC-3. Type of series: cell-based, human. Conditions: PC-3 (no AR), 144 h, up to 20 μM. As to the method: (§1) FIGS. 16-25: cytotoxic effect of compounds (R)-XXIII-2, (R)-XXIII-3, (R)-XXIII-4, (R)-XXIII-5, (R)-XXIII-6, (R)-XXIII-7, (R)-XXIII-8, (R)-XXIII-9, (R)-XXIII-10, (R)-XXIV-9 on PC-3 and DU-145 cell lines at different concentration (0.02, 0.2, 2, 20 μM) after 144 h exposure. On the x-axis is reported the concentration, while on the y-axis is reported the inhibition of the net growth (% net growth).
(§2) Sulforhodamine B (SRB) assay was used according to the method by Skehan et al. (JNCI, 1990). Briefly, cells were collected by trypsinization, counted and plated at a density of 5,000 cells/well in 96-well flat-bottomed microtiter plates (100 μl of cell suspension/well). In the chemosensitivity assay, experiments were run in octuplicate, and each experiment was repeated three times. The optical density (OD) of cells was determined at a wavelength of 490 nm by a colorimetric plate reader.
(§3) If ODtreated is above ODzero, treatment has induced a cytostatic effect, whereas if ODtreated is below ODzero, cell killing has occurred. The ODzero depicts the cell number at the moment of drug addition, the ODcontrol reflects the cell number in untreated wells and the ODtreated reflects the cell number in treated wells on the day of the assay.

The next series relates to DU145 cell line. Kind of series: SRB cytotoxicity, DU145. Conditions: DU145 (no AR), 144 h, up to 20 μM. Type of series: cell-based, human. As to the method: as §1, §2, §3
A further series concerns LNCaP-AR cells. Nature of the series: SRB in vitro chemosensitivity assay, LNCaP-AR. Type of series: cell-based. The conditions noted are these: for cytotoxic effect (cytostatic / cytocidal), in words: LNCaP-AR. As to the method:
(§4) The cell lines were maintained as a monolayer at 37° C. and subcultured weekly. Culture medium was composed of RPMI 1640 supplemented with 10% fetal calf serum and 1% glutamine (Mascia Brunelli s.p.a., Milan, Italy). Cells were used in the exponential growth phase in all the experiments.
(§5) Compounds were dissolved in acetone or DMSO (AITES) ([…]) and stored at −20° C. The cell culture containing acetone at the highest concentration was used as the control.
as §2, §3
(§6) FIGS. 2-11 show the cytotoxic activity of the derivative compounds of the invention on the LNCaP and LNCaP-AR cell lines. The authors examined the antitumour activity of the compounds for which the synthesis is described above, in the hormone-sensitive prostate cancer cell line LNCaP and in its derivative cell line LNCaP-AR, expressing high level of AR and with hormone refractory prostate cancer (HRPC) features. The novel compounds were tested at the increasing concentrations of […], 0.2, 2.0, and 20.0 μM. The highest dose used was chosen on the basis of the clinically achievable peak plasma concentration reported in the literature for bicalutamide (Cockshott I D. Clin Pharmacokinet. 2004; 43(13): 855-78). After 144-hr exposure time the cytotoxic effect of the molecules was calculated according to the method of Monks et al. (Monks A, Scudiero D, Skehan P, et al. Feasibility of a high-flux anticancer drug screen using a diverse panel of cultured human tumor cell lines. J Natl Cancer Inst. 1991; 83: 757-66.)

Another series has as its system LNCaP cells. Nature of the series: SRB in vitro chemosensitivity assay, LNCaP. Type of series: cell-based. The protocol: as §4, §5, §2, §3, §6
For series [1], the system named is human hepatoblastoma cell line HepG2. Nature of the series: Cytotoxic activity on HepG2 (hepato-toxicity). The conditions noted are these: HepG2, up to highest concentration tested. In kind it is cell-based. As to the method:
as §2, §3
FIG. 27-36 show the cytotoxic activity of the drugs on the human hepatoblastoma cell line HepG2. The authors evaluated in vitro the potential hepato-toxicity of some of the novel compounds on HepG2 cell line, a human hepatoblastoma cell line that retains the specialized function of normal hepatocytes [Knowles B B, Howe C C, Aden D P. Human hepatocellular carcinoma cell lines secretes the major plasma proteins and hepatitis B surface antigen. Science 1980, 209:497-499; Aden D P, Vogel A, Plortkin S, Damjanov I, Knowles B B. Controlled synthesis of HBS Ag in a differentiated human liver carcinoma-derived cell line. Nature, 1979, 282:615-616].

[2] abbreviates: LNCaP-AR cells, 144 h exposure, up to 20 μM.
Setting [3] is: Homo sapiens, LNCaP, 144 h, read-out: LC50, LNCaP cells, 144 h exposure, up to 20 μM.
Setting [4] is: read-out: LC50, LNCaP cells, 144 h exposure, up to 20 μM.
Where [5] appears, read: LNCaP cells, 144 h exposure, up to 20 μM.

The GI50 is the concentration that inhibits growth by half. By LC50 is commonly meant the concentration lethal to half of the exposed cells or organisms. As to `N#Cc1ccc(NC(=O)[C@](O)(Cc2cc(F)cc(F)c2)CS(=O)(=O)c2ccc(F)cc2)cc1C(F)(F)F` [(R)-XXIII-9], the “cytotoxic activity, in words” value was “maintain their cytostatic and cytocidal activity reaching LC50 values” in the series with PC-3 cell line; “maintain their cytostatic and cytocidal activity reaching LC50 values” with DU145 cell line. Besides, the 50% growth inhibitory concentration (GI50) came out at 8.2 µM with LNCaP-AR cells (Homo sapiens, LNCaP/AR, 144 h) and 5.7 µM with LNCaP cells (Homo sapiens, LNCaP, 144 h). The LC50 result in the series on LNCaP-AR cells (setting [2]) is “n.r”; in the series with LNCaP cells (setting [3]) it was 16.2 to 20 µM; in the series on LNCaP cells (setting [4]), 19.7 µM; in series [1], “not able to reach LC50 value”. Further, the “cytotoxic effect (cytostatic / cytocidal), in words” value in the series on LNCaP-AR cells (144 h, up to 20 μM) is listed as “cell killing activity”; with LNCaP cells (LNCaP, 144 h, up to 20 μM), “cell killing activity”. Moreover, in series [1], the “hepato-toxicity, in words” value is “Hepato-toxicity was observed”.

`N#Cc1ccc(OCC(O)(Cc2ccccc2)C(=O)Nc2ccc(C#N)c(C(F)(F)F)c2)cc1` (stereo in doubt) [(R)-XXIV-9]: the “cytotoxic activity, in words” value with PC-3 cell line was “maintain their cytostatic and cytocidal activity”; in the series on DU145 cell line, “maintain their cytostatic and cytocidal activity”. Further, the GI50 in the series with LNCaP-AR cells (Homo sapiens, LNCaP/AR, 144 h) was 7.1 µM; in the series with LNCaP cells (Homo sapiens, LNCaP, 144 h), 6.4 µM. Besides, the LC50 entry in the series on LNCaP-AR cells (setting [2]) is “n.r”; in the series with LNCaP cells (setting [3]) it was 16.2 to 20 µM; with LNCaP cells (setting [4]), 17.4 µM. Also, the “cytotoxic effect (cytostatic / cytocidal), in words” value in the series on LNCaP-AR cells (144 h, up to 20 μM) is recorded as “cell killing activity”; in the series on LNCaP cells (LNCaP, 144 h, up to 20 μM), “cell killing activity”. Besides, in series [1], the “hepato-toxicity, in words” value is recorded as “did not display toxicity”.

Consider `N#Cc1ccc(C[C@](O)(CS(=O)(=O)c2ccc(F)cc2)C(=O)Nc2ccc(C#N)c(C(F)(F)F)c2)cc1` [(R)-XXIII-7], for which the “cytotoxic activity, in words” value with PC-3 cell line and in the series with DU145 cell line was “negligible cytotoxic activity” throughout. In addition, the GI50 with LNCaP-AR cells (Homo sapiens, LNCaP/AR, 144 h) worked out at 1.8 µM; in the series on LNCaP cells (Homo sapiens, LNCaP, 144 h), 1.4 µM. The figures for the LC50 result with LNCaP-AR cells (setting [2]), in the series with LNCaP cells (setting [3]) and in the series with LNCaP cells (setting [4]) were “n.r”, 16.2 to 20 µM and 20 µM, respectively. Further, the “cytotoxic effect (cytostatic / cytocidal), in words” value in the series on LNCaP cells (LNCaP, 144 h, up to 20 μM) was “cytocidal effect”. Further, the “hepato-toxicity, in words” value in series [1] was “did not display toxicity”.

In the case of `C[C@](O)(CS(=O)(=O)c1ccc(F)cc1)C(=O)Nc1ccc(C#N)c(C(F)(F)F)c1` [(R)-Bicalutamide, reference compound], the GI50 result was “n.r” in the series on LNCaP-AR cells (setting [2]) and 1.8 µM with LNCaP cells (Homo sapiens, LNCaP cells, 144 h exposure, up to 20 μM, read-out: GI50). The LC50 result is on record as “n.r” with LNCaP-AR cells (setting [2]); “not observed” with LNCaP-AR cells (LNCaP-AR cells, 144 h exposure, up to 20 μM, listed as bicalutamide); “n.r.^a” with LNCaP cells (setting [5]); “not observed” in the series on LNCaP cells (LNCaP cells, 144 h exposure, up to 20 μM, listed as bicalutamide).

With `N#Cc1ccc(NC(=O)[C@](O)(Cc2cccc3ccccc23)CS(=O)(=O)c2ccc(F)cc2)cc1C(F)(F)F` [(R)-XXIII-10], the “cytotoxic activity, in words” value in the series on PC-3 cell line was “maintain their cytostatic and cytocidal activity reaching LC50 values”; with DU145 cell line, “maintain their cytostatic and cytocidal activity reaching LC50 values”. The GI50 worked out at 8.3 µM with LNCaP-AR cells (Homo sapiens, LNCaP/AR, 144 h) and 6.1 µM in the series on LNCaP cells (Homo sapiens, LNCaP, 144 h). Moreover, the LC50 result in the series with LNCaP-AR cells (setting [2]) was “n.r”; in the series on LNCaP cells (setting [3]), 16.2 to 20 µM; in the series with LNCaP cells (setting [4]), 19.7 µM; in series [1] it was “not able to reach LC50 value”. The “cytotoxic effect (cytostatic / cytocidal), in words” value with LNCaP-AR cells (144 h, up to 20 μM) was “cell killing activity”; in the series with LNCaP cells (LNCaP, 144 h, up to 20 μM), “cell killing activity”. Further, the “hepato-toxicity, in words” value in series [1] is “Hepato-toxicity was observed”.

For the molecule `CC[C@](O)(CS(=O)(=O)c1ccc(F)cc1)C(=O)Nc1ccc(C#N)c(C(F)(F)F)c1` [(R)-XXIII-2], the “cytotoxic activity, in words” value in the series with PC-3 cell line and in the series with DU145 cell line was “negligible cytotoxic activity” each time. The GI50 result in the series on LNCaP-AR cells (setting [2]) and in the series with LNCaP cells (setting [5]) was “n.r” in each case. Further, the LC50 result in the series with LNCaP-AR cells (setting [2]) and with LNCaP cells (setting [5]) was “n.r” throughout. For the same molecule, the “cytotoxic effect (cytostatic / cytocidal), in words” value with LNCaP-AR cells (144 h, up to 20 μM) is given as “weak cytostatic effect”; in the series on LNCaP cells (LNCaP, 144 h, up to 20 μM) it was “weak cytostatic effect”. Moreover, the “hepato-toxicity, in words” value in series [1] is recorded as “did not display toxicity”.
